The target of the assay is HPK1. Briefly: HPK1 Lantha Binding Assay ("Lanth"). The note with it: Table B1-1, read-out: HPK1 Ki (μM) (Lanth). How it is done:
HPK1 Lantha Binding Assay (“Lanth”)
The compounds to be tested were diluted by preparing 12.5 uL/well of 5 mM compound (100×) in columns 2 and 13 and 10 ul/well of DMSO in columns 3-12, 14-23, and wells A1-H1 and I24-P24 of the compound plate using a Bravo liquid handling platform. For the reference compound, the top concentration was 1 mM. To the plate was added 10 ul 2 mM staurosporine in wells J1-P1 and A24-H24. A 11 point 5-fold compound serial dilution was performed using the Bravo liquid handling platform. From the plate were transferred 2.5 ul of the solutions from column 2 and column 13 to the 10 ul of DMSO in columns 3 and 14 & so on. The compound plate was centrifuged at 2500 rpm for 1 min. From the compound plate was transferred 80 nl of the compounds into an assay plate using the Echo liquid handler system. One compound plate makes two assay plates. Each assay plate is sealed and stored in an N2 cabinet.
The following assay concentrations and times were used: 2 nM HPK1, 2 nM Eu-Anti-GST Ab, and 15 nM Tracer222, with 60 min incubation time.
III. HPK Lantha Binding Assay:
For the binding assay, 4 ul 2×HPK1 and Eu-anti-GST antibody were added to each well of the assay plate using a Multidrop reagent dispenser. The solutions were incubated in a 23 C incubator for 1 h. To each well of the assay plate was added 4 ul 2× Tracer-222 using a Multidrop reagent dispenser. The solutions were again incubated in a 23 C incubator for 1 h. The results of the assay were read using an Envision plate reader with the following parameters: TR_FRET, 340ex/615 and 665em; 100 usec Delay; and 200 usec integration.
Compound Ki was analyzed using Morrison ki fit model in XL-fit • a. fit=(1−((((E+x)+(Ki*(1+(S/Kd))))−(((((E+x)+(Ki*(1+(S/Kd))))[…])−((4*E)*x))^0.5))/(2*E))) • res=(y-fit) • b. Parameters: • E=enzyme concentration • S=Tracer222 concentration, Kd=Tracer222 Kd • All measurements reported using the same units (uM)
Exemplary compounds of Formula I or Ia were tested in the binding assays. The Ki data in Table B1-1 are based on the “Lanth” assay.

Broadly, the Ki is a dissociation constant, usually derived from enzyme kinetics or from competition with a known ligand. Consider `Nc1nc(N2CCOC2=O)cc2cc(NC(=O)C3CC3)ncc12` [Compound 40, N-(8-amino-6-(2-oxooxazolidin-3-yl)-2,7-naphthyridin-3-yl)cyclopropanecarboxamide], for which the Ki is 0.098 µM.
Regarding `Nc1nc(-c2cnccc2CO)cc2cc(NC(=O)[C@@H]3C[C@@H]3F)ncc12` [Compound 44, (1S,2S)—N-(8-amino-6-(4-(hydroxymethyl)pyridin-3-yl)-2,7-naphthyridin-3-yl)-2-fluorocyclopropanecarboxamide], the Ki came out at 0.048 µM.
For the compound `CCc1ccncc1-c1cc2cc(NC(=O)OCc3ccccc3)ncc2c(N)n1` [Compound 57, Benzyl 8-amino-6-(4-ethylpyridin-3-yl)-2,7-naphthyridin-3-ylcarbamate], the Ki is 0.00524 µM.
Regarding `CCc1ccncc1-c1cc2cc(NC(=O)N[C@@H]3CCN(C)C3=O)ncc2c(N)n1` [Compound 65, (R)-1-(8-amino-6-(4-ethylpyridin-3-yl)-2,7-naphthyridin-3-yl)-3-(1-methyl-2-oxopyrrolidin-3-yl)urea], the Ki was 0.00547 µM.
In the case of `CCc1ccncc1-c1cc2cc(NC(=O)C3=CC3)ncc2c(N)n1` [Compound 68, N-[8-amino-6-(4-ethyl-3-pyridyl)-2,7-naphthyridin-3-yl]cyclopropene-1-carboxamide], the inhibition constant Ki was found to be 0.545 µM.
For `CCc1ccncc1-c1cc2cc(NC(=O)c3cc(C)[nH]n3)ncc2c(N)n1` [Compound 70, 5-Methyl-1H-pyrazole-3-carboxylic acid [8-amino-6-(4-ethylpyridin-3-yl)-[2,7]naphthyridin-3-yl]amide], the Ki stood at 0.0276 µM.
On to `CCc1ccncc1-c1cc2cc(NC(=O)c3cc[nH]n3)ncc2c(N)n1` [Compound 71, 2H-Pyrazole-3-carboxylic acid [8-amino-6-(4-ethylpyridin-3-yl)-[2,7]naphthyridin-3-yl]amide], for which the Ki was determined as 0.01 µM.
Turning to `CCc1ccncc1-c1cc2cc(NC(=O)c3ccnn3C)ncc2c(N)n1` [Compound 72, 2-Methyl-2H-pyrazole-3-carboxylic acid [8-amino-6-(4-ethylpyridin-3-yl)-[2,7]naphthyridin-3-yl]amide], the inhibitory constant (Ki) stood at 0.0141 µM.
As to `CCc1ccncc1-c1cc2cc(NC(=O)c3cnn(C)c3)ncc2c(N)n1` [Compound 73, 1-Methyl-1H-pyrazole-4-carboxylic acid [8-amino-6-(4-ethylpyridin-3-yl)-[2,7]naphthyridin-3-yl]amide], the Ki was found to be 0.0134 µM.
Consider `CCc1ccncc1-c1cc2cc(Nc3cnn(C)c3)ncc2c(N)n1` [Compound 74, 3-(4-Ethylpyridin-3-yl)-N6-(1-methyl-1H-pyrazol-4-yl)-[2,7]naphthyridine-1,6-diamine], for which the inhibitory constant (Ki) came to 0.0013 µM.
To `CCc1ccncc1-c1cc2cc(Nc3cn[nH]c3)ncc2c(N)n1` [Compound 75, 3-(4-Ethylpyridin-3-yl)-N6-(1H-pyrazol-4-yl)-[2,7]naphthyridine-1,6-diamine] belongs 0.0008 µM; to `CCc1ccncc1-c1cc2cc(Nc3ccn(C)n3)ncc2c(N)n1` [Compound 76, 3-(4-Ethylpyridin-3-yl)-N6-(1-methyl-1H-pyrazol-3-yl)-[2,7]naphthyridine-1,6-diamine], 0.0013 µM; to `CCc1ccncc1-c1cc2cc(Nc3cc[nH]n3)ncc2c(N)n1` [Compound 77, 3-(4-Ethylpyridin-3-yl)-N6-(1H-pyrazol-3-yl)-[2,7]naphthyridine-1,6-diamine], 0.0006 µM.
With `CCc1ccncc1-c1cc2cc(Nc3cnn(C4CCNCC4)c3)ncc2c(N)n1` [Compound 78, 3-(4-Ethylpyridin-3-yl)-N6-(1-piperidin-4-yl-1H-pyrazol-4-yl)-[2,7] naphthyridine-1,6-diamine], the Ki came to 0.0001 µM.
`CCc1ccncc1-c1cc2cc(NS(=O)(=O)C3CC3)ncc2c(N)n1` [Compound 79, Cyclopropanesulfonic acid [8-amino-6-(4-ethylpyridin-3-yl)-[2,7]naphthyridin-3-yl]amide]: the Ki was 0.839 µM.
On to `CCc1ccncc1-c1cc2cc(Nc3cc(C)ncn3)ncc2c(N)n1` [Compound 80, 3-(4-Ethylpyridin-3-yl)-N6-(6-methylpyrimidin-4-yl)-[2,7]naphthyridine-1,6-diamine], for which the inhibition constant Ki came to 0.0003 µM.
Take `CCc1ccncc1-c1cc2cc(Nc3cc(C(=O)N(C)CC)ccn3)ncc2c(N)n1` [Compound 81, 2-[8-Amino-6-(4-ethylpyridin-3-yl)-[2,7]naphthyridin-3-ylamino]-N-ethyl-N-methylisonicotinamide]: the Ki worked out at 0.0003 µM.
The figure for `CCc1ccncc1-c1cc2cc(Nc3cccc(CO)n3)ncc2c(N)n1` [Compound 83, {6-[8-amino-6-(4-ethylpyridin-3-yl)-[2,7]naphthyridin-3-ylamino]pyridin-2-yl}methanol] is 0.0003 µM.
The figure for `CCc1ccncc1-c1cc2cc(NC(=O)c3cnn(C4CCNCC4)c3)ncc2c(N)n1` [Compound 84, 1-Piperidin-4-yl-1H-pyrazole-4-carboxylic acid [8-amino-6-(4-ethylpyridin-3-yl)-[2,7]naphthyridin-3-yl]amide] is 0.0018 µM; for `CCc1ccncc1-c1cc2cc(Nc3cnn(CCO)c3)ncc2c(N)n1` [Compound 85, 2-{4-[8-Amino-6-(4-ethylpyridin-3-yl)-[2,7]naphthyridin-3-ylamino]pyrazol-1-yl}ethanol] it is 0.00198 µM; for `CCc1ccncc1-c1cc2cc(NC(=O)Cc3ccn[nH]3)ncc2c(N)n1` [Compound 102, N-(8-amino-6-(4-ethylpyridin-3-yl)-2,7-naphthyridin-3-yl)-2-(1H-pyrazol-5-yl)acetamide] it is 0.0215 µM.
As to `CCc1ccncc1-c1cc2cc(NCc3ccn[nH]3)ncc2c(N)n1` [Compound 105, N6-((1H-pyrazol-5-yl)methyl)-3-(4-ethylpyridin-3-yl)-2,7-naphthyridine-1,6-diamine], the Ki amounted to 0.0402 µM.
The figure for `CCc1ccncc1-c1cc2cc(NC(=O)N[C@H]3C[C@@H](O)C3)ncc2c(N)n1` [Compound 109, 1-[8-amino-6-(4-ethyl-3-pyridyl)-2,7-naphthyridin-3-yl]-3-(cis-3-hydroxycyclobutyl)urea] is 0.0013 µM; for `Cc1ccncc1-c1cc2cc(NC(=O)C3C4CNCC43)ncc2c(N)n1` (centres unmarked) [Compound 111, N-[8-amino-6-(4-methyl-3-pyridyl)-2,7-naphthyridin-3-yl]-3-azabicyclo[3.1.0]hexane-6-carboxamide] it is 0.00238 µM; for `Cc1ccncc1-c1cc2cc(NC(=O)C3CC34CNC4)ncc2c(N)n1` (centres unmarked) [Compound 113, N-[8-amino-6-(4-methyl-3-pyridyl)-2,7-naphthyridin-3-yl]-5-azaspiro[2.3]hexane-2-carboxamide] it is 0.00353 µM.
In the case of `COCCN1C[C@@H]2[C@H](C1)[C@H]2C(=O)Nc1cc2cc(-c3cnccc3C)nc(N)c2cn1` [Compound 124, exo-N-[8-amino-6-(4-methyl-3-pyridyl)-2,7-naphthyridin-3-yl]-3-(2-methoxyethyl)-3-azabicyclo[3.1.0]hexane-6-carboxamide], the inhibition constant Ki is 0.0011 µM.
Take `Cc1ccncc1-c1cc2cc(NC(=O)O[C@@H]3CCNC3=O)ncc2c(N)n1` [Compound 133]: the Ki was determined as 0.015 µM.
On to `Cc1ccncc1-c1cc2cc(NC(=O)N[C@H]3CCC[C@@H]3O)ncc2c(N)n1` [Compound 134, 1-[8-amino-6-(4-methyl-3-pyridyl)-2,7-naphthyridin-3-yl]-3-[(1S,2S)-2-hydroxycyclopentyl]urea], for which the Ki stood at 0.0056 µM.
For the compound `CC(=O)N1C[C@@H]2[C@H](C1)[C@H]2C(=O)Nc1cc2cc(-c3cnccc3C)nc(N)c2cn1` [Compound 143, exo-3-acetyl-N-[8-amino-6-(4-methyl-3-pyridyl)-2,7-naphthyridin-3-yl]-3-azabicyclo[3.1.0]hexane-6-carboxamide], the Ki is 0.0059 µM.
The figure for `Cc1ccncc1-c1cc2cc(NC(=O)[C@H]3[C@@H]4CN(S(C)(=O)=O)C[C@@H]43)ncc2c(N)n1` [Compound 151, exo-N-[8-amino-6-(4-methyl-3-pyridyl)-2,7-naphthyridin-3-yl]-3-methylsulfonyl-3-azabicyclo [3.1.0]hexane-6-carboxamide] is 0.015 µM.
`CC(=O)Nc1cc2c(F)c(-c3cnccc3C)nc(N)c2cn1` [Compound 156, N-(8-amino-5-fluoro-6-(4-methylpyridin-3-yl)-2,7-naphthyridin-3-yl)acetamide]: the Ki turned out to be 0.021 µM.
To `Cc1ccncc1-c1cc2cc(NC(=O)[C@H]3[C@@H]4CNC(=O)[C@@H]43)ncc2c(N)n1` [Compound 158, Exo-N-(8-amino-6-(4-methylpyridin-3-yl)-2,7-naphthyridin-3-yl)-2-oxo-3-azabicyclo[3.1.0]hexane-6-carboxamide] belongs 0.0036 µM.

Values taken from patent US11034692B1 (Genentech, Inc., priority 2017, dated 2021).
